Literature values, collected in publication PMC4536914 (Chembiochem : a European journal of chemical biology, 2012).

Target: Plk1 PBD (HA-EGFP-Plk1 in mitotic 293A cell lysates) (Homo sapiens, UniProt P53350)
Conditions: previous work; ref [10]

Plk1 PBD (HA-EGFP-Plk1 in mitotic 293A cell lysates), sequence (P53350 whole entry): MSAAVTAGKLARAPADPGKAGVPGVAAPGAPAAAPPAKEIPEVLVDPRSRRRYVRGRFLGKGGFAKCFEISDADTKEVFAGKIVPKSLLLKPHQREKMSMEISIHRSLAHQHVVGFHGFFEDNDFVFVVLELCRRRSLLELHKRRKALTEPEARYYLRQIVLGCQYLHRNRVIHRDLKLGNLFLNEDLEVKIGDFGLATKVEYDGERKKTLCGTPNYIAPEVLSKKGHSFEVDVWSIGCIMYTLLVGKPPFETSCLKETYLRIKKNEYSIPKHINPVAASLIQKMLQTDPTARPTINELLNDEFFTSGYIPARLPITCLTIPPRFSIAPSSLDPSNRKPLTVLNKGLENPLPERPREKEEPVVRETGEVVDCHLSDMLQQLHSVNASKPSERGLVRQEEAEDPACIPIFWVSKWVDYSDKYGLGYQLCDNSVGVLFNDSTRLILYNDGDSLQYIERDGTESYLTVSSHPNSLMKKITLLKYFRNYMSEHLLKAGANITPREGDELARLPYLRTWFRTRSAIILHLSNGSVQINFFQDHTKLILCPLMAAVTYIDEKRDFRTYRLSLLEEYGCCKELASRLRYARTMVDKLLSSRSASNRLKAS

LHSpT
Plk1 PBD-binding affinity relative to parent peptide 1: significantly less Plk1 PBD-binding affinity than the parent peptide 1
